Entries after “also recorded” stand apart in the source; their conditions may differ.
Tests used:
[1] = tested on: CD34^+ cells from healthy donors; experiment: CFU assay (E-CFU, GM-CFU) of human CD34+ cells in Methocult; format: cell-based; settings: for effect of pathway inhibitor on CFU increase elicited by AVP: 10^−8 M AVP; for effect of pathway inhibitor on CFU increase elicited by AVPR1B agonist: 10^−8 M AVPR1B agonist; for effect of pathway inhibitor on GM-CFU increase induced by OXT: 10^−8 M OXT
Protocol: CD34^+ cells from healthy donors were plated into semi-solid methylcellulose medium (Methocult) containing hematopoietic factors (GM-CSF 5 ng/ml, IL-3 5 ng/ml, SCF 50 ng/ml, EPO 2.5 U/ml).
The number of erythroid colony forming units (E-CFU) and granulocyte-macrophage colony forming units (GM-CFU) were determined based on morphological criteria on 7th and 14th days in culture.

[2] = tested on: human CD34+ hematopoietic progenitors; experiment: Intracellular Ca2+ measurement in Fura-2 loaded human CD34+ hematopoietic progenitors; format: cell-based; settings: human CD34+ cells; for intracellular calcium levels: agonist stimulation
Protocol: Human BMSCs were loaded with Fura-2 and the cells were stimulated with AVP, or OXT. Intracellular Ca^2+ concentration was assayed as described before (Ely, J. A. et al. J Biol Chem 266, 18635-18641 (1991). To study their response to AVP and specific AVP receptor agonists and antagonists human CD34+ hematopoietic progenitors were Fura-2 loaded and Cytoplasmic Ca2+ measurements were performed in cells kept in suspension using a fluorescence spectrophotometer (Deltascan, Photon Technology International). Ratiometric measurements were recorded at 340/380 nm excitation and 500 nm emission and the ratios were plotted against time. Ionomycin (10 μM) was added at the end of each run to determine the maximum fluorescence ratio.

human CD34^+ cells = experiment: BrdU cell proliferation assay, human CD34+ cells; format: cell-based
Protocol: (§1) Sorted mouse bone marrow LSK cells (10000 cells/well) were plated in a 96 well plate in Stemspan serum free expansion medium ([…] Technologies, Vancouver, Canada) with Pen/Strep, and the following hematopoietic factors: 100 ng/ml TPO, 50 ng/ml FLT3L, 50 ng/ml IL-3 and SCF 100 ng/ml (Peprotech, Rocky Hill, N.J.). Cells were treated with […] (Sigma-Aldrich, St. Louis, Mo.). When using human CD34^+ cells (5000 cells/well), human SCF, TPO, FLT3L and G-CSF (Peprotech, each at 50-100 ng/ml) were added to the Stemspan medium. Cells were treated with 10^−8M-10^−14M AVP. After 24 hours, BrdU at a 1:1000 concentration was added to the cultures and incorporation of BrdU was measured using the Cell Proliferation ELISA BrdU kit (Roche, Mannheim, Germany) after another 24 hours of incubation.

Human BMSCs = experiment: BMSC signalling (ERK phosphorylation, cAMP, intracellular Ca2+); format: cell-based; settings: BMSC cultures
Protocol: For cAMP quantitation, 8×10^5 per well human BMSCs were plated in 6 well plates and left to attach overnight. Next day, the medium was changed and the cells were stimulated with AVP or deamino-Cys^1, D-Arg^8 AVP (DDAVP, a V2 receptor agonist) at 10^−6 M for 4 minutes. Cells were washed with PBS and lysed with R&D cell lysis buffer. Cyclic AMP was measured with the R&D cAMP Parameter assay kit (R&D Systems, Minneapolis, Minn.) according to manufacturer's instructions. Total protein concentrations of the cell lysates were measured using the Micro BCA Protein Assay kit (Pierce, Rockford, Ill.) and cAMP amount was normalized to 100 μg of total protein.

[3] = tested on: mouse bone marrow LSK cells; experiment: BrdU cell proliferation assay, sorted mouse bone marrow LSK cells; format: cell-based; settings: 10^−8M-10^−14M, 2 days culture
Protocol: as §1

C57BL6 male mice = experiment: Hemorrhage anemia model, Alzet pump delivery; format: in vivo, mouse; settings: hemorrhage, FIG. 9D
Protocol: Mice were anesthetized with isoflurane. Twenty five percent of their calculated circulating blood volume (calculated based on Animal Research Advisory Committee Guidelines for survival bleeding of mice and rats, OACU, NIH) was drained from the retro-orbital plexus.
The reticulocyte ratio of peripheral blood was determined using the Retic-Count flow kit (BD Biosciences) according to the manufacturer's instructions. Hematocrit values were measured with an automated analyzer and microhematocrit tubes. The reticulocyte index was calculated as follows: reticulocyte ratio %/total gated cells×hematocrit/45.
To infuse vasopressin into the mice, AVP filled ALZET pumps were implanted subcutaneously on the dorsal aspect of the neck (5 ug/day, Alzet 1007D—7 days, 2002-14 days). Vasopressin was also given immediately and 6 hours later as a bolus injection (100 μg/kg). Alzet pumps were inserted subcutaneously. The dimensions and pump specification are: ALZET, (DURECT Corporation, Cupertino, Calif., USA) mini-osmotic pump models 1007D or 2002. The pumps deliver 0.5 μl/h of the desired substance for a for 2-week period. In some cases, erythropoietin antibody (100 μg/mice) was given before anesthesia with the corresponding control antibody. […] Following the initial hemorrhage blood samples were taken at 2, 4 and in some cases 6 days later to determine hematocrit and corrected reticulocyte values.

[4] = per 1000 plated CD34+ cells, 10^−8 M

1L-6-hydroxymethyl-chiro-inositol 2-(R)-2-O-methyl-3-O-octadecylcarbonate [HIMO]
effect of pathway inhibitor on CFU increase elicited by AVP ([1]; Dkk1 200 ng/ml, HIMO 10^−8 M): had no effect | effect of pathway inhibitor on CFU increase elicited by AVPR1B agonist ([1]; Dkk1 200 ng/ml, HIMO 10^−8 M): had no effect | effect of pathway inhibitor on GM-CFU increase induced by OXT ([1]; Dkk1 200 ng/ml, HIMO 10^−8 M): did block | GM-CFU numbers, inhibitor on its own ([1]; Dkk1 200 ng/ml, HIMO 10^−8 M): Neither Dkk1 nor HIMO affected GM-CFU numbers on their own

COc1ccc(S(=O)(=O)N2C(=O)[C@@](c3ccccc3OC)(N3C[C@H](O)C[C@H]3C(=O)N(C)C)c3cc(Cl)ccc32)c(OC)c1 [AVPR1B antagonist, SSR 149415 - Nelivaptan]
block of the AVP-induced increase in calcium ([2]; antagonist): could be blocked | block of AVP / AVPR1B agonist induced proliferation of human HSPCs (human CD34^+ cells; antagonist): blocked; also recorded: both effects were seen

NC(=O)CC[C@@H]1NC(=O)[C@H](Cc2ccccc2)NC(=O)[C@H](Cc2ccc(O)cc2)NC(=O)CCSSC[C@@H](C(=O)N2CCC[C@H]2C(=O)N[C@H](CCCN=C(N)N)C(=O)NCC(N)=O)NC(=O)[C@H](CC(N)=O)NC1=O [AVPR2 agonist, deamino-Cys^1, D-Arg^8 AVP]
cyclic AMP (Human BMSCs; 10^−6 M for 4 minutes): increase in cyclic AMP

CC[C@H](C)[C@@H]1NC(=O)[C@H](Cc2ccc(O)cc2)NC(=O)[C@@H](N)CSSC[C@@H](C(=O)N2CCC[C@H]2C(=O)N[C@@H](CC(C)C)C(=O)NCC(N)=O)NC(=O)[C@H](CC(N)=O)NC(=O)[C@H](CCC(N)=O)NC1=O [OXT, oxytocin]
proliferation (BrdU incorporation) of mouse LSK cells [3]: induced proliferation; also recorded: stimulated LSK proliferation | proliferation (BrdU) of human CD34+ cells / HSPCs (human CD34^+ cells): responded to AVP and OXT in much the same way as mouse LSK cells did | granulocyte macrophage-colony forming unit (GM-CFU) numbers [1, 4]: increased only GM-CFU numbers | ERK phosphorylation (Human BMSCs): induced ERK phosphorylation | intracellular calcium (Human BMSCs): increase in intracellular Ca^2+ concentrations

NC[C@H](O)c1ccc(O)c(O)c1 [noradrenaline]
erythroid-colony forming unit (E-CFU) numbers [1, 4]: significantly increased

[Phe2, Ile3, Orn8] Vasopressin [AVPR1A agonist]
intracellular calcium levels [2]: did not respond

dCha^4AVP
intracellular calcium levels [2]: increased intra-cellular Ca^2+ concentrations | colony formation ([1]; 10^−8M): stimulated colony formation

d[Leu4, Lys8]-VP [dLeu^4Lys^8-VP]
recovery times (C57BL6 male mice): significantly improved recovery times

desGlyAVP
proliferation (BrdU incorporation) of mouse LSK cells [3]: did not

B1: Dkk1: dickkopf related protein 1, Wnt pathway inhibitor (protein, UniProt O94907 32-266, looked up)
Dickkopf-related protein 1: TLNSVLNSNAIKNLPPPLGGAAGHPGSAVSAAPGILYPGGNKYQTIDNYQPYPCAEDEECGTDEYCASPTRGGDAGVQICLACRKRRKRCMRHAMCCPGNYCKNGICVSSDQNHFRGEIEETITESFGNDHSTLDGYSRRTTLSSKMYHTKGQEGSVCLRSSDCASGLCCARHFWSKICKPVLKEGQVCTKHRRKGSHGLEIFQRCYCGEGLSCRIQKDHHQASNSSRLHTCQRH
effect of pathway inhibitor on CFU increase elicited by AVP ([1]; Dkk1 200 ng/ml, HIMO 10^−8 M): blocked the increase in GM-CFU numbers | effect of pathway inhibitor on CFU increase elicited by AVP ([1]; Dkk1 200 ng/ml, HIMO 10^−8 M, listed as DKK-1): did block | effect of pathway inhibitor on CFU increase elicited by AVPR1B agonist ([1]; Dkk1 200 ng/ml, HIMO 10^−8 M): blocked the increase in GM-CFU numbers | effect of pathway inhibitor on GM-CFU increase induced by OXT ([1]; Dkk1 200 ng/ml, HIMO 10^−8 M): did not alter
